Data on three compounds can be found in ChEMBL document CHEMBL2057181 (Bioorg Med Chem Lett, 2012).

pIC50, pKi: −log10 of the molar value.

Test [1] has as its target T1, Phosphoethanolamine N-methyltransferase (Plasmodium falciparum, UniProt Q8IDQ9).
T1 sequence (Q8IDQ9 whole entry): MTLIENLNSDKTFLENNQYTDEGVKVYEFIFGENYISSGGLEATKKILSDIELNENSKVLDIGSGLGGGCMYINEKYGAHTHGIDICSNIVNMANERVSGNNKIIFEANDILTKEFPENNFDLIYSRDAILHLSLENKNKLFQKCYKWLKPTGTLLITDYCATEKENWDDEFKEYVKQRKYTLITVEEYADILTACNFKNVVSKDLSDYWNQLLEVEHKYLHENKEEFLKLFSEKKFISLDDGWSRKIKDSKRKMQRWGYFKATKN
The experiment in a line: Inhibition of Plasmodium falciparum phosphoethanolamine methyltransferase using phospethanolamine as substrate by radiochemical assay in presence of S-adenosylmethionine.

A short description of test [2]: Inhibition of Haemonchus contortus phosphoethanolamine methyltransferase2 conversion of phosphomonomethylethanolamine to phosphodimethylethanolamine by radiochemical assay in presence of S-adenosylmethionine.
Test [3] in a line: Inhibition of Haemonchus contortus phosphoethanolamine methyltransferase1-mediated conversion of phosphoethanolamine to phosphomonomethylethanolamine by radiochemical assay in presence of S-adenosylmethionine.
For test [4], the target named is Histamine N-methyltransferase (Homo sapiens, UniProt P50135). As to the kind of experiment: Inhibition of histamine N-methyltransferase by radiochemical assay.
Chain of Histamine N-methyltransferase (P50135 whole entry): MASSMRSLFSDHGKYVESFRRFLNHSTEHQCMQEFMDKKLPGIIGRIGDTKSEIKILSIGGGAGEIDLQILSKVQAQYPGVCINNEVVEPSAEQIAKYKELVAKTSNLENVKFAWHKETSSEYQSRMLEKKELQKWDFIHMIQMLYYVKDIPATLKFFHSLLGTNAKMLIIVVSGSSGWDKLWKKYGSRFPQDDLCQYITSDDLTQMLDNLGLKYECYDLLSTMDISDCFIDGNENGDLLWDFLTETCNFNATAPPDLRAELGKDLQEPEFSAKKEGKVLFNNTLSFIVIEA

Broadly, the pIC50 is the IC50 on a negative log10 scale, so that one unit is a factor of ten. Take `COc1cc(NC(C)CCCN)c2ncccc2c1` (stereo not given) [PRIMAQUINE]: in test [1], the pIC50 is 3.34. Same read-out and setting: in the case of `CCN(CC)CCCC(C)Nc1ccnc2cc(Cl)ccc12` (stereo not given) [CHLOROQUINE] it was 3.26. The pKi is −log10 of the Ki, conventionally taken in molar units. Read a low pKi as a large Ki. As for `CCN(CC)Cc1cc(Nc2ccnc3cc(Cl)ccc23)ccc1O`, the pIC50 in test [2] and in test [3] was 2.52 in each case. Besides, the negative logarithm of the Ki (pKi) in test [4] was 7.72.
